Patent US10543185B2, “Method for treating idiopathic pulmonary fibrosis” (The University of Chicago, priority 2015, dated 2020)

System: patients with idiopathic pulmonary fibrosis (IPF)
Assay: Independent replication cohort (INSPIRE trial and University of Chicago): NAC versus no NAC therapy, genotype-stratified
Type: in vivo, human
Conditions: for Replication cohort multivariate Cox interaction model coefficient, NAC Therapy term: FVC, DLCO, prednisone use, azathioprine use and study cohort; for Replication cohort multivariate Cox interaction model coefficient, SNP*NAC interaction term: adjusted as in the Table 9 footnote; for Genotype-stratified Composite Endpoint Risk Associated with NAC Therapy, HR: vs no NAC therapy
Excerpt: The INSPIRE cohort consists of individuals enrolled in the industry-sponsored randomized clinical trial comparing interferon gamma-1b to placebo. […] Clinical and genetic data for patients providing informed consent to genetic testing were used to conduct the analysis. Patients were followed for up to 170 weeks after randomization.
The University of Chicago (UChicago) cohort consists of individuals followed in the UChicago ILD clinic from 2007-2013 who provided informed consent to undergo DNA testing. Patients were followed from time of initial evaluation until death, lung transplantation, loss-to-follow up or time of censoring (Sep. 9, 2013). Vital status was determined using telephone interviews with family members and the social security death index. Patients participating in PANTHER and INSPIRE were removed from the UC cohort.
To minimize the effects of population stratification, only participants that self-declared a non-Hispanic white ethnicity were included in the analysis. Demographic and clinical information extracted from the datasets included age, gender, race/ethnicity, treatment arm, pulmonary function testing (PFT) including forced vital capacity (FVC) and diffusion capacity for carbon monoxide (DLCO) and outcomes, including death, >10% decline in FVC, hospitalization and lung transplantation.
Hospitalization data were not available for patients in the replication cohort so composite endpoint-free survival was defined as time from trial enrollment (INSPIRE) or blood draw (UChicago) to death, ≥10% FVC decline or transplantation in those not receiving NAC therapy and time from NAC initiation to death, >10% FVC decline or transplantation in those receiving NAC therapy. Because follow-up time was longer for the UChicago compared to INSPIRE cohort, UChicago cohort survival time was censored at 170 weeks to allow for merging of the datasets. All statistical analysis was conducted using Stata (StataCorp. 2011. Release 12. College Station, Tex.).
Based on the findings above, interaction modeling was performed in an independent cohort between NAC therapy and rs3750920 (TOLLIP), rs5743894 (TOLLIP) and rs35705950 (MUC5B). Of the 771 non-Hispanic white individuals enrolled in the INSPIRE trial, DNA was available for 314. In the UChicago cohort, of 151 non-Hispanic white individuals with sequencing data, 91 had longitudinal PFT data and were included in the analysis. A summary of baseline demographic and clinical characteristics, along with genotype counts for the INSPIRE, UChicago and combined cohorts are shown in Table 8.

[1] = INSPIRE cohort, NAC recipients (n = 29)
[2] = UChicago cohort, NAC recipients (n = 18)
[3] = combined replication cohort, NAC recipients (n = 47)

## CC(=O)N[C@@H](CS)C(=O)O [NAC, (2R)-2-acetamido-3-sulfanylpropanoic acid]
[1]
  Composite Endpoint, %: (48.3) %
  Death, %: (20.7) %
  FVC Decline ≥10%, %: (44.8) %
  Transplant, %: (6.9) %
[2]
  Composite Endpoint, %: (72.2) %
  Death, %: (72.2) %
  FVC Decline ≥10%, %: (22.2) %
  Transplant, %: (0) %
[3]
  Composite Endpoint, %: (57.5) %
  FVC Decline ≥10%, %: (36.2) %
  Transplant, %: (4.3) %
Model with rs3750920 (TOLLIP), adjusted for age, gender
  Replication cohort multivariate Cox interaction model coefficient, NAC Therapy term: 1.37
Model with rs5743894 (TOLLIP), term printed as rs3750920*NAC interaction
  Replication cohort multivariate Cox interaction model coefficient, SNP*NAC interaction term: −0.40
Model with rs5743894 (TOLLIP), adjusted for age, gender
  Replication cohort multivariate Cox interaction model coefficient, NAC Therapy term: 0.54
Model with rs35705950 (MUC5B), adjusted for age, gender
  Replication cohort multivariate Cox interaction model coefficient, NAC Therapy term: 1.24
Replication cohort, FIG. 3, p=0.03
  Unadjusted Kaplan-Meier survival among NAC recipients, rs3750920 TT genotype versus CC or CT genotype: significantly better overall survival
Replication cohort, rs3750920 (TOLLIP) CC, adjusted for age, gender, FVC and DLCO
  Genotype-stratified Composite Endpoint Risk Associated with NAC Therapy, HR: 3.51
Replication cohort, rs3750920 (TOLLIP) CT
  Genotype-stratified Composite Endpoint Risk Associated with NAC Therapy, HR: 2.27
Replication cohort, rs3750920 (TOLLIP) TT
  Genotype-stratified Composite Endpoint Risk Associated with NAC Therapy, HR: 0.23
Replication cohort, rs35705950 (MUC5B) GG
  Genotype-stratified Composite Endpoint Risk Associated with NAC Therapy, HR: 3.15
Replication cohort, rs35705950 (MUC5B) GT/TT
  Genotype-stratified Composite Endpoint Risk Associated with NAC Therapy, HR: 0.94
rs3750920 (TOLLIP) interaction
  Replication cohort multivariate Cox interaction model coefficient, SNP*NAC interaction term: −0.86
rs35705950 (MUC5B) interaction
  Replication cohort multivariate Cox interaction model coefficient, SNP*NAC interaction term: −1.30
